Reference: US11083725B2 (priority 2014, dated 2021)

System: NHBE cells
Test: Biolog metabolic array: substrate use by NHBE cells with or without CA09 infection
Assay type: cell-based, human
Settings: for Substrate use, 590 nm absorbance normalized to zero hour, 0 hr: Biolog PMM2, 0 hr; for Substrate use, 590 nm absorbance normalized to zero hour, 1 hr: Biolog PMM2, 1 hr; for Substrate use, 590 nm absorbance normalized to zero hour, 5 hr: Biolog PMM2, 5 hr; for Substrate use, 590 nm absorbance normalized to zero hour, 7 hr: Biolog PMM2, 7 hr
[1] = Control (uninfected) NHBE cells
[2] = Virus (CA09-infected, MOI 1) NHBE cells
[3] = Virus: CA09-infected NHBE cells, MOI 1, Biolog PMM2
[4] = Virus (CA09, MOI 1) infected NHBE cells

| SMILES | 590 nm absorbance normalized to zero hour (substrate use), 1 hr [1] | 590 nm absorbance normalized to zero hour (substrate use), 2 hr [1] | 590 nm absorbance normalized to zero hour (substrate use), 3 hr [1] | 590 nm absorbance normalized to zero hour (substrate use), 4 hr [1] | 590 nm absorbance normalized to zero hour (substrate use), 6 hr [1] | 590 nm absorbance normalized to zero hour (substrate use), 8 hr [1] | 590 nm absorbance normalized to zero hour (substrate use), 9 hr [1] | 590 nm absorbance normalized to zero hour (substrate use), 10 hr [1] | 590 nm absorbance normalized to zero hour (substrate use), 11 hr [1] | Substrate use, 590 nm absorbance normalized to zero hour, 1 hr [1] | Substrate use, 590 nm absorbance normalized to zero hour, 5 hr [1] | Substrate use, 590 nm absorbance normalized to zero hour, 7 hr [1] | 590 nm absorbance normalized to zero hour (substrate use), 1 hr [2] | 590 nm absorbance normalized to zero hour (substrate use), 2 hr [2] | 590 nm absorbance normalized to zero hour (substrate use), 3 hr [2] | 590 nm absorbance normalized to zero hour (substrate use), 4 hr [2] | 590 nm absorbance normalized to zero hour (substrate use), 6 hr [2] | 590 nm absorbance normalized to zero hour (substrate use), 8 hr [2] | 590 nm absorbance normalized to zero hour (substrate use), 9 hr [2] | 590 nm absorbance normalized to zero hour (substrate use), 10 hr [2] | other results |
| --- | --- | --- | --- | --- | --- | --- | --- | --- | --- | --- | --- | --- | --- | --- | --- | --- | --- | --- | --- | --- | --- |
| OC[C@H]1O[C@@](CO)(O[C@H]2O[C@H](CO)[C@@H](O)[C@H](O)[C@H]2O)[C@@H](O[C@H]2O[C@H](CO)[C@@H](O)[C@H](O)[C@H]2O)[C@@H]1O [D-Melezitose] | 1.47 | 1.93 | 2.23 | 2.39 | 3.85 | 3.55 | 3.84 | 4.31 | 3.97 | 1.47 | 2.80 | 3.32 | 1.67 | 2.39 | 2.73 | 2.88 | 3.57 | 3.98 | 4.49 | 4.69 | 590 nm absorbance normalized to zero hour (substrate use), 0 hr [1]: 1.00; Substrate use, 590 nm absorbance normalized to zero hour, 0 hr [1]: 1.00; 590 nm absorbance normalized to zero hour (substrate use), 0 hr [2]: 1.00; 590 nm absorbance normalized to zero hour (substrate use), 5 hr [2]: 3.35; 590 nm absorbance normalized to zero hour (substrate use), 7 hr [2]: 3.77; 590 nm absorbance normalized to zero hour (substrate use), 11 hr [2]: 5.01; 590 nm absorbance normalized to zero hour (substrate use), 0 hr [3]: 1.00; 590 nm absorbance normalized to zero hour (substrate use), 1 hr [3]: 1.67; 590 nm absorbance normalized to zero hour (substrate use), 2 hr [3]: 2.39; 590 nm absorbance normalized to zero hour (substrate use), 3 hr [3]: 2.73; 590 nm absorbance normalized to zero hour (substrate use), 4 hr [3]: 2.88; 590 nm absorbance normalized to zero hour (substrate use), 5 hr [3]: 3.35; 590 nm absorbance normalized to zero hour (substrate use), 6 hr [3]: 3.57; 590 nm absorbance normalized to zero hour (substrate use), 7 hr [3]: 3.77; 590 nm absorbance normalized to zero hour (substrate use), 8 hr [3]: 3.98; 590 nm absorbance normalized to zero hour (substrate use), 9 hr [3]: 4.49; 590 nm absorbance normalized to zero hour (substrate use), 10 hr [3]: 4.69; 590 nm absorbance normalized to zero hour (substrate use), 11 hr [3]: 5.01 |
| OC[C@H]1O[C@H](OCC2O[C@@H](O)[C@H](O)[C@@H](O)[C@@H]2O)[C@H](O)[C@@H](O)[C@H]1O (stereo partly drawn) [D-Melibiose] | 0.88 | 1.14 | 1.40 | 1.44 | 1.81 | 1.80 | 2.05 | 2.19 | 1.80 | 0.88 | 1.69 | 1.88 | 3.65 | 3.76 | 3.77 | 3.78 | 3.58 | 3.20 | 1.54 | 1.54 | 590 nm absorbance normalized to zero hour (substrate use), 0 hr [1]: 1.00; Substrate use, 590 nm absorbance normalized to zero hour, 0 hr [1]: 1.00; Substrate use, 590 nm absorbance normalized to zero hour, 0 hr [4]: 1.00; Substrate use, 590 nm absorbance normalized to zero hour, 1 hr [4]: 3.65; Substrate use, 590 nm absorbance normalized to zero hour, 5 hr [4]: 3.62; Substrate use, 590 nm absorbance normalized to zero hour, 7 hr [4]: 3.59; 590 nm absorbance normalized to zero hour (substrate use), 0 hr [2]: 1.00; 590 nm absorbance normalized to zero hour (substrate use), 11 hr [2]: 1.63 |
| OC[C@H]1O[C@H](OC[C@H]2O[C@H](O[C@]3(CO)O[C@H](CO)[C@@H](O)[C@@H]3O)[C@H](O)[C@@H](O)[C@@H]2O)[C@H](O)[C@@H](O)[C@H]1O [D-Raffinose] | 1.09 | 1.11 | 1.37 | 1.53 | 0.75 | 1.82 | 1.82 | 2.00 | 2.15 | 1.09 | 1.75 | 1.71 | 0.68 | 0.59 | 0.55 | 0.49 | 0.54 | 1.77 | 1.74 | 1.15 | 590 nm absorbance normalized to zero hour (substrate use), 0 hr [1]: 1.00; Substrate use, 590 nm absorbance normalized to zero hour, 0 hr [1]: 1.00; 590 nm absorbance normalized to zero hour (substrate use), 0 hr [2]: 1.00; 590 nm absorbance normalized to zero hour (substrate use), 5 hr [2]: 1.98; 590 nm absorbance normalized to zero hour (substrate use), 7 hr [2]: 1.92; 590 nm absorbance normalized to zero hour (substrate use), 11 hr [2]: 1.53; 590 nm absorbance normalized to zero hour (substrate use), 0 hr [3]: 1.00; 590 nm absorbance normalized to zero hour (substrate use), 1 hr [3]: 0.68; 590 nm absorbance normalized to zero hour (substrate use), 2 hr [3]: 0.59; 590 nm absorbance normalized to zero hour (substrate use), 3 hr [3]: 0.55; 590 nm absorbance normalized to zero hour (substrate use), 4 hr [3]: 0.49; 590 nm absorbance normalized to zero hour (substrate use), 5 hr [3]: 1.98; 590 nm absorbance normalized to zero hour (substrate use), 6 hr [3]: 0.54; 590 nm absorbance normalized to zero hour (substrate use), 7 hr [3]: 1.92; 590 nm absorbance normalized to zero hour (substrate use), 8 hr [3]: 1.77; 590 nm absorbance normalized to zero hour (substrate use), 9 hr [3]: 1.74; 590 nm absorbance normalized to zero hour (substrate use), 10 hr [3]: 1.15; 590 nm absorbance normalized to zero hour (substrate use), 11 hr [3]: 1.53 |
| OC[C@@H](O)[C@@H](O)[C@H](O)[C@@H](O)CO [D-Sorbitol] | 2.10 | 2.97 | 3.57 | 3.84 | 4.81 | 5.56 | 6.08 | 6.47 | 6.92 | 2.10 | 4.59 | 5.29 | 1.80 | 2.63 | 3.10 | 3.35 | 4.37 | 4.94 | 5.39 | 5.64 | 590 nm absorbance normalized to zero hour (substrate use), 5 hr [2]: 4.00; 590 nm absorbance normalized to zero hour (substrate use), 7 hr [2]: 4.63; 590 nm absorbance normalized to zero hour (substrate use), 11 hr [2]: 6.18; 590 nm absorbance normalized to zero hour (substrate use), 1 hr [3]: 1.80; 590 nm absorbance normalized to zero hour (substrate use), 2 hr [3]: 2.63; 590 nm absorbance normalized to zero hour (substrate use), 3 hr [3]: 3.10; 590 nm absorbance normalized to zero hour (substrate use), 4 hr [3]: 3.35; 590 nm absorbance normalized to zero hour (substrate use), 5 hr [3]: 4.00; 590 nm absorbance normalized to zero hour (substrate use), 6 hr [3]: 4.37; 590 nm absorbance normalized to zero hour (substrate use), 7 hr [3]: 4.63; 590 nm absorbance normalized to zero hour (substrate use), 8 hr [3]: 4.94; 590 nm absorbance normalized to zero hour (substrate use), 9 hr [3]: 5.39; 590 nm absorbance normalized to zero hour (substrate use), 10 hr [3]: 5.64; 590 nm absorbance normalized to zero hour (substrate use), 11 hr [3]: 6.18 |
